Structures are written as SMILES.

For test [1], the target named is T1, human FGFR3 wild type enzyme (cytoplasmic domain) (Homo sapiens, UniProt P22607).
T1 construct: human FGFR3 wild type enzyme (cytoplasmic domain, from Carna Biosciences); purchased Carna Biosciences
Put plainly: FGFR3 wild type mobility shift assay (enzymatic assay). The class given is biochemical. The conditions noted are these: 75 μM ATP, 50 minutes at 30° C., Caliper EZ reader II. The method, then: FGFR3 Wild Type Mobility Shift Assay (Enzymatic Assay)
(§1) In a final reaction volume of 25 μL, 0.04 ng/μL human FGFR3 wild type enzyme (cytoplasmic domain, from Carna Biosciences) was incubated with 75 μM ATP, 1 μM FL-peptide 30 substrate and 250 nL of testing compound (1% DMSO final) in assay buffer (100 mM HEPES pH 7.4, 10 mM MgCl2, 0.003% Brij35, 1 mM DTT). After incubation for 50 minutes at 30° C. the reaction was stopped with 10 μL of 0.5M EDTA pH 8.0, and then 25 μL of reaction mixture was transferred to reading plate and measured on Caliper EZ reader II. The substrate-product conversion rate was used as raw data for normalization and concentration-response curve (10 dose points with 4× serial dilution, starting with 10 μM) was plotted using Prism to calculate IC50 (M), pIC50 (−log IC50) and HillSlope value.

In test [2] the target is T2, human FGFR3 V555M enzyme (cytoplasmic domain carrying V555M mutation) (Homo sapiens, UniProt P22607, V555M).
T2 construct: human FGFR3 V555M enzyme (cytoplasmic domain carrying V555M mutation, from Carna Biosciences); purchased Carna Biosciences
In words: FGFR3 V555M mobility shift assay (enzymatic assay). The class given is biochemical. The settings on record: 30 μM ATP, 45 minutes at 30° C., Caliper EZ reader II. The method, then:
FGFR3 V555M Mobility Shift Assay (Enzymatic Assay)
as §1, with “FGFR3 V555M” for “FGFR3 wild type”, “(cytoplasmic domain carrying V555M mutation,” for “(cytoplasmic domain,”, “with 30” for “with 75”, “for 45” for “for 50”

The target of test [3] is T3, NIH/3T3 cells overexpressing FGFR3 WT-TACC3 fusion protein (Homo sapiens, UniProt P22607).
T3 construct: NIH/3T3 FGFR3 WT-TACC3 CTG (IC50); other: 72-hr incubation, CellTiter Glo, starting with 10 μM; fused on or other part: Q9Y6A5 (Transforming acidic coiled-coil-containing protein 3)
In words: NIH/3T3 FGFR3 WT-TACC3 cell proliferation assay. The test is classed as cell-based. The settings on record: 72-hr incubation, CellTiter Glo, starting with 10 μM; read-out: NIH/3T3 FGFR3 WT-TACC3 CTG (IC50). Here is the method:
NIH/3T3 FGFR3 WT-TACC3 Cell Proliferation Assay
(§2) In day 1, 90 μL of cell suspension (NIH/3T3 cells overexpressing FGFR3 WT-TACC3 fusion protein) (total 30,000 cells per well in growth medium (DMEM containing 1% Glutamax, 10% FBS and 1% Pen/Strep)) was seeded in a 96-well plate and then incubated overnight at 37° C. and 5% CO2. In day 2, 10 μL of growth medium containing 10-fold stock solution of testing compound was added into cell cultures (9 dose points with 4× serial dilution, starting with 10 μM, 0.1% DMSO final). After 72-hr incubation at 37° C. and 5% CO2, in day 5 a volume of 50 μL CellTiter Glo (CTG) reagent was added into cell-containing 96-well plate and the plate was incubated at room temperature for 10 minutes before RLUs (relative light unit) were measured on a microplate reader with luminescence detection module. The RLU value was normalized to survival % and concentration-response curve was plotted using Prism to calculate IC50 (M), pIC50 (−log IC50) and HillSlope value.
In general terms: ATP-based viability assays read luminescence as a measure of living cells.

In test [4] the target is T4, NIH/3T3 cells overexpressing FGFR3 V555M-TACC3 fusion protein (Homo sapiens, UniProt P22607, V555M, cells depend on it).
T4 construct: NIH/3T3 FGFR3 V555M-TACC3 CTG (IC50); other: 72-hr incubation, CellTiter Glo, starting with 10 μM; fused on or other part: Q9Y6A5 (Transforming acidic coiled-coil-containing protein 3)
Put plainly: NIH/3T3 FGFR3 V555M-TACC3 cell proliferation assay. The class given is cell-based. The conditions noted are these: 72-hr incubation, CellTiter Glo, starting with 10 μM; read-out: NIH/3T3 FGFR3 V555M-TACC3 CTG (IC50). Here is the method:
NIH/3T3 FGFR3 V555M-TACC3 Cell Proliferation Assay
as §2, with “V555M-TACC3” for “WT-TACC3”

Test [5] deals with NIH/3T3 cells transfected with the same control vector. Put plainly: NIH/3T3 mock cell proliferation assay (counter assay, general toxicity). The test is classed as cell-based. The settings on record: Mus musculus, NIH3T3, 72 h, 72-hr incubation, CellTiter Glo, starting with 30 μM; counter assay for general toxicity; read-out: NIH/3T3 MOCK CTG (IC50). The method, then:
NIH/3T3 Mock Cell Proliferation Assay
as §2, with “cells transfected with the same control vector as in the above two proliferation assays)” for “cells overexpressing FGFR3 WT-TACC3 fusion protein)”, “with 3×” for “with 4×”, “with 30” for “with 10”, “μM, 0.3%” for “μM, 0.1%”

T2 sequence (P22607 397-806 V555M limits assumed): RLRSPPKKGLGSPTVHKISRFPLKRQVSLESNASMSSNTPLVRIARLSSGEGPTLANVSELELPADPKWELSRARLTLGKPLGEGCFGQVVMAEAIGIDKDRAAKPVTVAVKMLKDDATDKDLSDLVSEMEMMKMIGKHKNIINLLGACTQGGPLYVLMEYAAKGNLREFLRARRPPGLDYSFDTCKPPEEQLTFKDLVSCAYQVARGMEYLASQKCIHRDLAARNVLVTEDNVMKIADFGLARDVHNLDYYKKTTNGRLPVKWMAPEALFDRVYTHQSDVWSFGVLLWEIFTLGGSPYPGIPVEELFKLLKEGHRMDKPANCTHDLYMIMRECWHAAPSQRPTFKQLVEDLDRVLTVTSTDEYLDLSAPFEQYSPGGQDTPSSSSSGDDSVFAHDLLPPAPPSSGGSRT
T4 sequence (P22607 whole entry V555M, the tested form may be a part): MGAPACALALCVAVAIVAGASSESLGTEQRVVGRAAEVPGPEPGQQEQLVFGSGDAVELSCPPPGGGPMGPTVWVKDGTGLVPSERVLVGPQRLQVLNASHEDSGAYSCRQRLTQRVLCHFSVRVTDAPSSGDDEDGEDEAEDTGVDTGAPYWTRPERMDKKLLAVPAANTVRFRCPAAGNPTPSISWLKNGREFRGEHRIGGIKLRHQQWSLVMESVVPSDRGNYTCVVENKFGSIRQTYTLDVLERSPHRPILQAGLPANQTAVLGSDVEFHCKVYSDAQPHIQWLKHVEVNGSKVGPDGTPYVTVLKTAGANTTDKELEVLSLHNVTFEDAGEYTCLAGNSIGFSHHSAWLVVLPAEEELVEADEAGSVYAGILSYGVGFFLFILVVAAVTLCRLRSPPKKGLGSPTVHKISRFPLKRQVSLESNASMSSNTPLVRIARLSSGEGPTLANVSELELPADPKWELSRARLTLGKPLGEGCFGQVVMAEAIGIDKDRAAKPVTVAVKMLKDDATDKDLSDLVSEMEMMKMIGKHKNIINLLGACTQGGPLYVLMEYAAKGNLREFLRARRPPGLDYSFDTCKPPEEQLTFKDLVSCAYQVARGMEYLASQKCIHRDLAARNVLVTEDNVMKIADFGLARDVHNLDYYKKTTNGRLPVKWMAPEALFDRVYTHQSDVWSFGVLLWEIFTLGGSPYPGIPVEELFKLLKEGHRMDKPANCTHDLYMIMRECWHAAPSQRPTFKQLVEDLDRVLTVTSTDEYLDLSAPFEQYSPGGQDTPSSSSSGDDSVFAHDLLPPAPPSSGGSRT
T3 sequence (P22607 whole entry, change not shown, the tested form may be a part): as the sequence (P22607 whole entry V555M, the tested form may be a part) above, with M555V counted along it
T1 sequence (P22607 397-806 limits assumed): as the sequence (P22607 397-806 V555M limits assumed) above, with M159V counted along it

In the case of `CC(Nc1c(-c2nc3ccc(N4C[C@@H](C)O[C@H](C)C4)cc3[nH]2)c(=O)[nH]c2ccccc12)c1ncccn1` (single isomer, unassigned) [Compound 37a, 3-(6-((2R,6R)-2,6-dimethylmorpholino)-1H-benzo[d]imidazol-2-yl)-4-(((S*)-1-(pyrimidin-2-yl)ethyl)amino)quinolin-2(1H)-one], the IC50 stood at 0.478 nM in test [1], 0.326 nM in test [2] and 898 nM in test [5]. Also, the GI50 is 11.7 nM in test [3] and 4.18 nM in test [4].

Turning to `CC(Nc1c(-c2nc3ccc(N4C[C@H](C)O[C@@H](C)C4)cc3[nH]2)c(=O)[nH]c2ccccc12)c1ncccn1` (single isomer, unassigned) [Compound 39a, 3-(6-((2S,6S)-2,6-dimethylmorpholino)-1H-benzo[d]imidazol-2-yl)-4-(((S*)-1-(pyrimidin-2-yl)ethyl)amino)quinolin-2(1H)-one], the IC50 in test [1] is 0.174 nM; in test [2], 0.136 nM; in test [5], 1600 nM. Also, the GI50 was 6.58 nM in test [3] and 6.47 nM in test [4].

In the case of `C[C@@H]1CN(c2ccc3nc(-c4c(N[C@@H](C)c5ncccn5)c5ccccc5[nH]c4=O)[nH]c3c2)CCO1` (single isomer, unassigned) [Compound 40a], the figures for the IC50 in test [1], in test [2] and in test [5] were 0.313 nM, 0.168 nM and 2480 nM, respectively. Further, the GI50 came out at 3.15 nM in test [3] and 1.85 nM in test [4].

`CC(Nc1c(-c2nc3ccc(N4CCN(CCC(F)(F)F)CC4)cc3[nH]2)c(=O)[nH]c2ccccc12)c1ncccn1` (single isomer, unassigned) [Compound 41a, (S*)-4-((1-(pyrimidin-2-yl)ethyl)amino)-3-(6-(4-(3,3,3-trifluoropropyl)piperazin-1-yl)-1H-benzo[d]imidazol-2-yl)quinolin-2(1H)-one]: the IC50 amounted to 0.668 nM in test [1], 0.485 nM in test [2] and 6970 nM in test [5]. For the same compound, the results for the GI50 in test [3] and in test [4] were 7.08 nM and 5.01 nM, respectively.

As for `CC(Nc1c(-c2nc3ccc(N4CCC(OC(F)(F)F)CC4)cc3[nH]2)c(=O)[nH]c2ccccc12)c1ncccn1` (single isomer, unassigned) [Compound 43a, (S*)-4-((1-(pyrimidin-2-yl)ethyl)amino)-3-(6-(4-(trifluoromethoxy)piperidin-1-yl)-1H-benzo[d]imidazol-2-yl)quinolin-2(1H)-one], the values for the IC50 in test [1], in test [2] and in test [5] were 1 nM, 0.643 nM and 8270 nM, respectively. For the same compound, the GI50 in test [3] is 20.3 nM; in test [4] it was 9.93 nM.

Regarding `CC(Nc1c(-c2nc3ccc(N4CC5CCC(C4)O5)cc3[nH]2)c(=O)[nH]c2ccccc12)c1ncccn1` (single isomer, unassigned) [Compound 44a, 3-(6-(8-oxa-3-azabicyclo[3.2.1]octan-3-yl)-1H-benzo[d]imidazol-2-yl)-4-(((S*)-1-(pyrimidin-2-yl)ethyl)amino)quinolin-2(1H)-one], the results for the IC50 in test [1], in test [2] and in test [5] were 0.244 nM, 0.147 nM and 3040 nM, respectively. Also, the values for the GI50 in test [3] and in test [4] were 9.46 nM and 3.98 nM, respectively.

`CC(Nc1c(-c2nc3cc(C(F)(F)F)c(N4CCOCC4)cc3[nH]2)c(=O)[nH]c2ccccc12)c1ncccn1` (single isomer, unassigned) [Compound 45, (S*)-3-(6-morpholino-5-(trifluoromethyl)-1H-benzo[d]imidazol-2-yl)-4-((1-(pyrimidin-2-yl)ethyl)amino)quinolin-2(1H)-one]: the IC50 worked out at 1.17 nM in test [1], 0.483 nM in test [2] and 12700 nM in test [5]. In addition, the results for the GI50 in test [3] and in test [4] were 25.3 nM and 12.2 nM, respectively.

Take `COc1ccnc(C(C)Nc2c(-c3nc4ccc(N5CCOCC5)cc4[nH]3)c(=O)[nH]c3ccccc23)c1` (single isomer, unassigned) [Compound 48a, (S*)-4-((1-(4-methoxypyridin-2-yl)ethyl)amino)-3-(6-morpholino-1H-benzo[d]imidazol-2-yl)quinolin-2(1H)-one]: the IC50 in test [1] worked out at 19.9 nM; in test [2] it was 5.41 nM; in test [5], 5670 nM. The GI50 came out at 454 nM in test [3] and 547 nM in test [4].

On to `CC(Nc1c(-c2nc3ccc(N4CCOCC4)cc3[nH]2)c(=O)[nH]c2ccccc12)c1cocn1` (single isomer, unassigned) [Compound 51a, (S*)-3-(6-morpholino-1H-benzo[d]imidazol-2-yl)-4-((1-(oxazol-4-yl)ethyl)amino)-quinolin-2(1H)-one], for which the IC50 in test [1] stood at 1.31 nM; in test [2], 0.237 nM; in test [5] it was 1180 nM. For the same compound, the results for the GI50 in test [3] and in test [4] were 30.1 nM and 30.2 nM, respectively.

In the case of `CC(Nc1c(-c2nc3ccc(N4CCOCC4)cc3[nH]2)c(=O)[nH]c2ccccc12)c1cscn1` (single isomer, unassigned) [Compound 52a, (S*)-3-(6-morpholino-1H-benzo[d]imidazol-2-yl)-4-((1-(thiazol-4-yl)ethyl)amino)-quinolin-2(1H)-one], the IC50 in test [1] was 0.858 nM; in test [2], 0.208 nM; in test [5] it was 1430 nM. The GI50 worked out at 23.1 nM in test [3] and 6.69 nM in test [4].

Source of the values: patent publication US11384075B2, “Quinolinone compounds” (Janssen Pharmaceutica NV, priority 2017, dated 2022).
